The source of these data is PMC6063448, “Antimicrobial activity of linear lipopeptides derived from BP100 towards plant pathogens” (PLoS ONE, 2018).

Series [1] deals with Xanthomonas arboricola pv. pruni CFBP5563. As to the kind of experiment: MIC, growth inhibition in microtiter plates (TSB). It is filed as cell-based. Conditions: Xap, 25°C, 48 h, OD 600 nm, lowest concentration with no growth, given as interval of tested concentrations, three replicates, experiment repeated twice. In outline: (§1)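 Peptides, dissolved in water at 1 mM and filter-sterilized, were diluted and mixed with bacterial suspension (10^8 CFU mL^-1 before mixing) in TSB. Plates were incubated at 25°C with shaking, and OD600 was read hourly for 48 h. MIC was the lowest concentration with no growth at the end.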

For series [2], the system named is Pseudomonas syringae pv. actinidiae Psa3700.1.1. As to the kind of experiment: MIC, growth inhibition in microtiter plates (TSB). In kind it is cell-based. Conditions: Psa, 25°C, 48 h, OD 600 nm, lowest concentration with no growth, given as interval of tested concentrations, three replicates, experiment repeated twice. In outline: as §1
The subject of series [3] is Xanthomonas axonopodis pv. vesicatoria 2133–2. As to the kind of experiment: MIC, growth inhibition in microtiter plates (TSB). It is filed as cell-based. The note with it: Xav, 25°C, 48 h, OD 600 nm, lowest concentration with no growth, given as interval of tested concentrations, three replicates, experiment repeated twice. In outline: (§2)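 Agar-grown cells in water (10^8 CFU mL^-1 stock suspension) + serially diluted peptide (1 mM water stock) in TSB; 25°C, 48 h, OD600 hourly; no-growth endpoint gives MIC.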

Series [4] deals with Pseudomonas syringae pv. syringae EPS94. As to the kind of experiment: MIC, growth inhibition in microtiter plates (TSB). In kind it is cell-based. Conditions: Pss, 25°C, 48 h, OD 600 nm, lowest concentration with no growth, given as interval of tested concentrations, three replicates, experiment repeated twice. In outline: as §1
Series [5] relates to Xanthomonas fragariae Xf349-9A. As to the kind of experiment: MIC, growth inhibition in microtiter plates (TSB). Conditions: Xf, 25°C, 48 h, OD 600 nm, lowest concentration with no growth, given as interval of tested concentrations, three replicates, experiment repeated twice. It is filed as cell-based. The gist of the method:
as §1

The subject of series [6] is Erwinia amylovora PMV6076. As to the kind of experiment: MIC, growth inhibition in microtiter plates (TSB). It is filed as cell-based. The note with it: Ea, 25°C, 48 h, OD 600 nm, lowest concentration with no growth, given as interval of tested concentrations, three replicates, experiment repeated twice. The gist of the method: as §2
The subject of series [7] is T1, proteinase K.
T1 construct: purchased Sigma-Aldrich Corporation, Spain
In words: Susceptibility to protease degradation. It is filed as in vitro ADME. Conditions: proteinase K (isolated protease) in TRIS buffer; 50 μg/mL peptide, 1 μg/mL proteinase K, 100 mM TRIS buffer pH 7.6, 25°C, 60 min; decrease of HPLC peak area (220 nm); read-out: Digestion with proteinase K (percentage of degraded peptide). How it is done:
Digestion of BP100 and of 16 selected lipopeptides was carried out by treating 50 μg/mL peptide with 1 μg/mL proteinase K (Sigma-Aldrich Corporation, Spain) in 100 mM TRIS buffer, pH 7.6, at 25°C. The peptide cleavage after 60 min was determined by HPLC using a Kromasil (4.6 × 40 mm; 3 μm particle size) C18 reverse-phase column. Linear gradients of 0.1% aqueous TFA and 0.1% TFA in CH3CN were run from 0.98:0.02 to 0:1 over 12 min with UV detection at 220 nm. Digestion was estimated as the percentage of degraded lipopeptide calculated from the decrease of the HPLC peak area of the native peptide.

The test system of series [8] is tobacco leaves. In words: Effect of peptide infiltration on tobacco leaves. It is filed as in vivo. The note with it: for Size of the lesions in infiltrated tobacco leaves (diameter): 250 μM, 100 μL infiltrated into mesophyll, measured after 48 h; for Reaction observed in the area of infiltration of tobacco leaves: in contrast to melittin. How it is done:
BP100 and the 36 lipopeptides were evaluated for their effect upon infiltration on tobacco leaves as described previously. Peptide solutions of 50, 150 and 250 μM were infiltrated (100 μL) into the mesophylls of fully expanded tobacco leaves. Infiltrations were carried out in a single leaf, and for each peptide and dose, at least three leaves randomly distributed in different plants were inoculated. Control infiltrations with water (negative control) or melittin (positive control) at the same molar concentration were performed. The appearance of symptoms on the leaves was followed for 48 h after infiltration and measured as a lesion diameter.

For `CCCCCC(=O)NCCCC[C@H](NC(=O)[C@H](CCCCN)NC(=O)[C@H](CCCCN)NC(=O)[C@H](Cc1ccccc1)NC(=O)[C@H](CC(C)C)NC(=O)[C@H](CCCCN)NC(=O)[C@H](CCCCN)NC(C)=O)C(=O)N[C@@H](CC(C)C)C(=O)N[C@@H](CCCCN)C(=O)N[C@@H](Cc1ccc(O)cc1)C(=O)N[C@@H](CC(C)C)C(N)=O` [BP374, Ac-KKLFKKK(COC5H11)LKYL-NH2], the MIC (in general, the least concentration at which growth counts as inhibited) in series [1] is 6.2 to 12.5 µM; in series [2], 3.1 to 6.2 µM; in series [3] it was 6.2 to 12.5 µM; in series [4] it was 6.2 to 12.5 µM; in series [5], 3.1 to 6.2 µM; in series [6], 3.1 to 6.2 µM.

Turning to `CCCC(=O)NCCCC[C@H](NC(=O)[C@H](CCCCN)NC(C)=O)C(=O)N[C@@H](CC(C)C)C(=O)N[C@@H](Cc1ccccc1)C(=O)N[C@@H](CCCCN)C(=O)N[C@@H](CCCCN)C(=O)N[C@H](C(=O)N[C@@H](CC(C)C)C(=O)N[C@@H](CCCCN)C(=O)N[C@@H](Cc1ccc(O)cc1)C(=O)N[C@@H](CC(C)C)C(N)=O)[C@@H](C)CC` [BP381, Ac-KK(COC3H7)LFKKILKYL-NH2], the metabolised at 1 h, 50 μg/mL in series [7] was found to be 53%. In addition, the MIC lay within 3.1 to 6.2 µM in series [1]; 3.1 to 6.2 µM in series [2]; 1.6 to 3.1 µM in series [3]; 3.1 to 6.2 µM in series [4]; 1.6 to 3.1 µM in series [5]; 3.1 to 6.2 µM in series [6]. Also, the “Size of the lesions in infiltrated tobacco leaves (diameter)” value (“Size of the lesions” for short) in series [8] turned out to be 10.8 ± 1.9 mm.

For the compound `CCCC(=O)NCCCC[C@H](NC(=O)[C@H](CCCCN)NC(=O)[C@H](Cc1ccccc1)NC(=O)[C@H](CC(C)C)NC(=O)[C@H](CCCCN)NC(=O)[C@H](CCCCN)NC(C)=O)C(=O)N[C@H](C(=O)N[C@@H](CC(C)C)C(=O)N[C@@H](CCCCN)C(=O)N[C@@H](Cc1ccc(O)cc1)C(=O)N[C@@H](CC(C)C)C(N)=O)[C@@H](C)CC` [BP385, Ac-KKLFKK(COC3H7)ILKYL-NH2], the minimal inhibitory concentration (MIC) in series [1] lay within 0.8 to 1.6 µM; in series [2], 6.2 to 12.5 µM; in series [3] it was 0.8 to 1.6 µM; in series [4], 6.2 to 12.5 µM; in series [5] it was 1.6 to 3.1 µM; in series [6] it was 6.2 to 12.5 µM.

As for `CCCC(=O)NCCCC[C@H](NC(=O)[C@H](CCCCN)NC(=O)[C@H](CC(C)C)NC(=O)[C@@H](NC(=O)[C@H](CCCCN)NC(=O)[C@H](CCCCN)NC(=O)[C@H](Cc1ccccc1)NC(=O)[C@H](CC(C)C)NC(=O)[C@H](CCCCN)NC(=O)[C@H](CCCCN)NC(C)=O)[C@@H](C)CC)C(=O)N[C@@H](CC(C)C)C(N)=O` [BP389, Ac-KKLFKKILKK(COC3H7)L-NH2], in series [7], the metabolised at 1 h, 50 μg/mL amounted to 29%. Moreover, the MIC in series [1] is 0.8 to 1.6 µM; in series [2], 3.1 to 6.2 µM; in series [3], 0.8 to 1.6 µM; in series [4], 6.2 to 12.5 µM; in series [5] it was 1.6 to 3.1 µM; in series [6], 3.1 to 6.2 µM. Besides, in series [8], the “Size of the lesions” value was found to be 9.0 ± 2.9 mm.

In the case of `CCCCCC(=O)NCCCC[C@H](NC(=O)[C@H](CC(C)C)NC(=O)[C@H](CCCCN)NC(=O)[C@H](CCCCN)NC(C)=O)C(=O)N[C@@H](CCCCN)C(=O)N[C@@H](CCCCN)C(=O)N[C@H](C(=O)N[C@@H](CC(C)C)C(=O)N[C@@H](CCCCN)C(=O)N[C@@H](Cc1ccc(O)cc1)C(=O)N[C@@H](CC(C)C)C(N)=O)[C@@H](C)CC` [BP371, Ac-KKLK(COC5H11)KKILKYL-NH2], the MIC in series [1], in series [2], in series [3], in series [4], in series [5] and in series [6] was 3.1 to 6.2 µM each time.

As to `CCCC(=O)NCCCC[C@H](NC(=O)[C@H](Cc1ccc(O)cc1)NC(=O)[C@H](CCCCN)NC(=O)[C@H](CC(C)C)NC(=O)[C@@H](NC(=O)[C@H](CCCCN)NC(=O)[C@H](CCCCN)NC(=O)[C@H](Cc1ccccc1)NC(=O)[C@H](CC(C)C)NC(=O)[C@H](CCCCN)NC(=O)[C@H](CCCCN)NC(C)=O)[C@@H](C)CC)C(N)=O` [BP390, Ac-KKLFKKILKYK(COC3H7)-NH2], the minimum inhibitory concentration (MIC) in series [1] lay in the range of 6.2 to 12.5 µM; in series [2] it was 6.2 to 12.5 µM; in series [3], 3.1 to 6.2 µM; in series [4], 6.2 to 12.5 µM; in series [5] it was 3.1 to 6.2 µM; in series [6] it was 3.1 to 6.2 µM.

As to `CC[C@H](C)[C@H](NC(=O)[C@H](CCCCN)NC(=O)[C@H](CCCCN)NC(=O)[C@H](Cc1ccccc1)NC(=O)[C@H](CC(C)C)NC(=O)[C@H](CCCCN)NC(=O)[C@@H](N)CCCCN)C(=O)N[C@@H](CC(C)C)C(=O)N[C@@H](CCCCN)C(=O)N[C@@H](Cc1ccc(O)cc1)C(=O)N[C@@H](CC(C)C)C(N)=O` [BP100, H-Lys-Lys-Leu-Phe-Lys-Lys-Ile-Leu-Lys-Tyr-Leu-NH2], the metabolised at 1 h, 50 μg/mL in series [7] stood at 24%. The MIC in series [1] fell in the range of 1.6 to 3.1 µM; in series [2] it was 1.6 to 3.1 µM; in series [3], 3.1 to 6.2 µM; in series [4], 3.1 to 6.2 µM; in series [5] it was 3.1 to 6.2 µM; in series [6], 3.1 to 6.2 µM.

As for `CCCCCCCCCCCC(=O)NCCCC[C@H](NC(=O)[C@H](CC(C)C)NC(=O)[C@@H](NC(=O)[C@H](CCCCN)NC(=O)[C@H](CCCCN)NC(=O)[C@H](Cc1ccccc1)NC(=O)[C@H](CC(C)C)NC(=O)[C@H](CCCCN)NC(=O)[C@H](CCCCN)NC(C)=O)[C@@H](C)CC)C(=O)N[C@@H](Cc1ccc(O)cc1)C(=O)N[C@@H](CC(C)C)C(N)=O` [BP400, Ac-KKLFKKILK(COC11H23)YL-NH2], the MIC was 1.6 to 3.1 µM in series [1]; over 25 µM in series [2]; 1.6 to 3.1 µM in series [3]; over 25 µM in series [4]; 3.1 to 6.2 µM in series [5]; over 25 µM in series [6]. Further, the “Reaction observed in the area of infiltration of tobacco leaves” value in series [8] is on record as “not a typical necrosis”.

Consider `CCCCCC(=O)NCCCC[C@H](NC(=O)[C@H](Cc1ccc(O)cc1)NC(=O)[C@H](CCCCN)NC(=O)[C@H](CC(C)C)NC(=O)[C@@H](NC(=O)[C@H](CCCCN)NC(=O)[C@H](CCCCN)NC(=O)[C@H](Cc1ccccc1)NC(=O)[C@H](CC(C)C)NC(=O)[C@H](CCCCN)NC(=O)[C@H](CCCCN)NC(C)=O)[C@@H](C)CC)C(N)=O` [BP378, Ac-KKLFKKILKYK(COC5H11)-NH2], for which the metabolised at 1 h, 50 μg/mL in series [7] was 45%. The MIC in series [1] is 3.1 to 6.2 µM; in series [2] it was 3.1 to 6.2 µM; in series [3], 3.1 to 6.2 µM; in series [4], 6.2 to 12.5 µM; in series [5], 3.1 to 6.2 µM; in series [6], 3.1 to 6.2 µM. The “Size of the lesions” value in series [8] turned out to be 13.2 ± 4.7 mm. Further, in series [8], the “Reaction observed in the area of infiltration of tobacco leaves” value was “not a typical necrosis”.
